One data set concerns most of the fungal. As to conditions: for most of the fungal; cited from earlier work.
Another data set concerns Candida mycoderma. Description: Test of antibacterial activity in vitro (bacteria-inhibition zone). It counts as cell-based. The note with it: for zone of inhibition at 1.4 µg/mL: 1.4 μg/ml after conversion, serum added (40% defibered sheep serum); for zone of inhibition at 2.8 µg/mL: 2.8 μg/ml after conversion, no serum.
For another data set, the system named is Saccharomyces cerevisiae. Described as above. As to conditions: Saccharomyces cerevisiae; for zone of inhibition at 1.4 µg/mL: 1.4 μg/ml after conversion, serum added (40% defibered sheep serum); for zone of inhibition at 2.8 µg/mL: 2.8 μg/ml after conversion, no serum. The data set is classed as cell-based.
A further data set relates to Candida albicans. Described as above. It counts as cell-based. As to conditions: Candida albicans; for zone of inhibition at 1.4 µg/mL: 1.4 μg/ml after conversion, serum added (40% defibered sheep serum); for zone of inhibition at 2.8 µg/mL: 2.8 μg/ml after conversion, no serum.
The subject of the next data set is esterase. The note with it: cited from earlier work.
For data set [1] the following is noted: study by Rutgers University; cited from earlier work.
Where [2] appears, read: 0 h, read-out: diameter of the bacteria-inhibition zone, Candida mycoderma 0 h.
The mark [3] stands for this setting: 6 h, read-out: diameter of the bacteria-inhibition zone, Candida mycoderma 6 h.
[4] abbreviates: 24 h, read-out: diameter of the bacteria-inhibition zone, Candida mycoderma 24 h.
The mark [5] stands for this setting: 48 h, read-out: diameter of the bacteria-inhibition zone, Candida mycoderma 48 h.
Setting [6] is: 0 h, read-out: diameter of the bacteria-inhibition zone, Saccharomyces cerevisiae 0 h.
The mark [7] stands for this setting: 6 h, read-out: diameter of the bacteria-inhibition zone, Saccharomyces cerevisiae 6 h.
The mark [8] stands for this setting: 24 h, read-out: diameter of the bacteria-inhibition zone, Saccharomyces cerevisiae 24 h.
Where [9] appears, read: 48 h, read-out: diameter of the bacteria-inhibition zone, Saccharomyces cerevisiae 48 h.
The mark [10] stands for this setting: 0 h, read-out: diameter of the bacteria-inhibition zone, Candida albicans 0 h.
[11] abbreviates: 6 h, read-out: diameter of the bacteria-inhibition zone, Candida albicans 6 h.
The mark [12] stands for this setting: 24 h, read-out: diameter of the bacteria-inhibition zone, Candida albicans 24 h.
[13] abbreviates: 48 h, read-out: diameter of the bacteria-inhibition zone, Candida albicans 48 h.

Molecules are shown by their SMILES. Read-outs that look alike come from different tables or passages of the source.

In general, zone of inhibition refers to the extent of the growth-free halo in a diffusion test.

Regarding `C[C@@H]1[C@H](O)[C@@H](C)/C=C/C=C/C=C/C=C/C=C/C=C/C=C/[C@H](O[C@@H]2O[C@H](C)[C@@H](O)[C@H](N)[C@@H]2O)C[C@@H]2O[C@](O)(C[C@@H](O)C[C@@H](O)[C@H](O)CC[C@@H](O)C[C@@H](O)CC(=O)O[C@H]1C)C[C@H](O)[C@H]2C(=O)O` [amphotericin B, reference compound], the “minimum inhibitory concentration (MIC)” value in the data set on most of the fungal was 0.02 to 1 µg/mL. The zone of inhibition at 1.4 µg/mL in the data set on Candida mycoderma (setting [2]) lay within 12 to 14 mm; in the data set with Candida mycoderma (setting [3]), 12 to 14 mm; in the data set with Candida mycoderma (setting [4]), 12 to 14 mm; in the data set on Candida mycoderma (setting [5]), 12 to 14 mm; in the data set on Saccharomyces cerevisiae (setting [6]), 14 to 16 mm; in the data set on Saccharomyces cerevisiae (setting [7]) it was 14 to 16 mm. For the same compound, the zone of inhibition at 1.4 µg/mL in the data set with Saccharomyces cerevisiae (setting [8]) is 14 to 16 mm; in the data set with Saccharomyces cerevisiae (setting [9]), 14 to 16 mm; with Candida albicans (setting [10]) it was 12 to 14 mm; in the data set with Candida albicans (setting [11]) it was 12 to 14 mm; in the data set with Candida albicans (setting [12]), 12 to 14 mm; in the data set on Candida albicans (setting [13]), 12 to 14 mm. For the same compound, the zone of inhibition at 2.8 µg/mL in the data set on Candida mycoderma (setting [2]) was 14 to 16 mm; with Candida mycoderma (setting [3]), 14 to 16 mm; with Candida mycoderma (setting [4]), 14 to 16 mm; in the data set with Candida mycoderma (setting [5]), 14 to 16 mm; with Saccharomyces cerevisiae (setting [6]), 16 to 18 mm; with Saccharomyces cerevisiae (setting [7]), 16 to 18 mm. Also, the zone of inhibition at 2.8 µg/mL with Saccharomyces cerevisiae (setting [8]) fell in the range of 16 to 18 mm; in the data set on Saccharomyces cerevisiae (setting [9]), 16 to 18 mm; in the data set on Candida albicans (setting [10]), 14 to 16 mm; in the data set on Candida albicans (setting [11]), 14 to 16 mm; in the data set on Candida albicans (setting [12]), 14 to 16 mm; in the data set on Candida albicans (setting [13]), 14 to 16 mm.
In the case of `COC(=O)[C@H]1[C@@H]2C[C@@H](O[C@@H]3O[C@H](C)[C@@H](O)[C@H](N)[C@@H]3O)/C=C/C=C/C=C/C=C/C=C/C=C/C=C/[C@H](C)[C@@H](O)[C@@H](C)[C@H](C)OC(=O)C[C@H](O)C[C@H](O)CC[C@@H](O)[C@H](O)C[C@H](O)C[C@](O)(C[C@@H]1O)O2` [amphotericin methyl ester], the “hydrolysis by esterase in vivo” value in the data set on esterase was “cannot be hydrolyzed by esterase in vivo”. Further, in data set [1], the toxicity result is “toxicity was lowered”.

The values above are taken from patent US8217013B2, “Polyene diester antibiotics” (priority 2007, dated 2012).
